# Results from patent US20250041380A1, “R[…] FOR SARS-COV2 DISEASE” (priority 2021, published 2025).
# Read-outs that look alike come from different tables or passages of the source.
# Columns and labels:
# [1] = system: liver cells (HepG2); assay: cells; type: cell-based; details: Spike S1 Protein (20 μg/ml)
# [2] = system: Lung (A549) cells; assay: in vitro; type: cell-based, Human; details: 48 h
# Experimental: (§1) A549 cells were plated in DMEM+10% FBS at a density of 10,000 cells/well in 96-well culture plates and incubated at 37° C. for 24 h. THP-1 cells were plated in RPMI+10% FBS at a density of 10,000 cells/well in 96-well culture plates and incubated at 37° C. for 24 h. Cells were sera-starved for 24 h. […] Untreated cells were used as control. Cells treated with dexamethasone and hydroxychloroquine were included as positive control. After treatment, cells were incubated in a 5% CO2 incubator for 48 h.
# [3] = system: pancreatic cells (PANC-1); assay: cells; type: cell-based; details: Spike S1 Protein (20 μg/ml)+
# [4] = system: Bladder cells (T24); assay: tissue or blood; type: cell-based; details: Spike S1 Protein (5 μg/ml)
# [5] = system: Cardiac cells (H9C2); assay: cells; type: cell-based; details: Spike S1 Protein (5 μg/ml); for inhibition at 0.1 µM / inhibition at 1 µM / inhibition at 10 µM / inhibition at 20 µM: Rattus norvegicus, H9c2
# [6] = system: Colon cells (HT-29); assay: cells; type: cell-based; details: Spike S1 Protein (1 μg/ml); for inhibition at 0.1 µM / inhibition at 1 µM / inhibition at 10 µM / inhibition at 20 µM: Homo sapiens, HT-29
# [7] = system: Immune (THP-1) cells; assay: in vitro; type: cell-based, Human; details: 48 h
# Experimental: as §1
# [8] = system: Kidney cells (HEK-293); assay: cells; type: cell-based; details: Spike S1 Protein (100 ng/ml); for inhibition at 0.1 µM / inhibition at 1 µM / inhibition at 10 µM / inhibition at 20 µM: Homo sapiens, HEK293
# [9] = system: Bone cells (MG-63); assay: cells; type: cell-based; details: Spike S1 Protein (10 μg/ml); for inhibition at 0.1 µM / inhibition at 1 µM / inhibition at 10 µM / inhibition at 20 µM: Homo sapiens, MG-63
# [10] = system: Endothelial cells (EA.hy926); assay: cells; type: cell-based; details: Spike S1 Protein (1 μg/ml); for inhibition at 0.1 µM / inhibition at 1 µM / inhibition at 10 µM / inhibition at 20 µM: Homo sapiens, EA.hy 926
# [11] = 0.1 μM, read-out: % Inhibition (IL-6)
# [12] = 0.1 μM, read-out: % Inhibition (IL-8)
# [13] = 1 μM, read-out: % Inhibition (IL-6)
# [14] = 1 μM, read-out: % Inhibition (IL-8)
# [15] = 10 μM, read-out: % Inhibition (IL-6)
# [16] = 10 μM, read-out: % Inhibition (IL-8)
# [17] = 20 μM, read-out: % Inhibition (IL-6)
# [18] = 20 μM, read-out: % Inhibition (IL-8)
# [19] = 0.1 μM, read-out: % Inhibition (wrt Control), IL-6
# [20] = 0.1 μM, read-out: % Inhibition (wrt Control), IL-8
# [21] = 1 μM, read-out: % Inhibition (wrt Control), IL-6
# [22] = 1 μM, read-out: % Inhibition (wrt Control), IL-8
# [23] = 10 μM, read-out: % Inhibition (wrt Control), IL-6
# [24] = 10 μM, read-out: % Inhibition (wrt Control), IL-8
# [25] = 20 μM, read-out: % Inhibition (wrt Control), IL-6
# [26] = 20 μM, read-out: % Inhibition (wrt Control), IL-8
compound,measurement,setting,value
C[C@@H]1C[C@H]2[C@@H]3CCC4=CC(=O)C=C[C@]4(C)[C@@]3(F)[C@@H](O)C[C@]2(C)[C@@]1(O)C(=O)CO [Dexamethasone],Conc. of IL-8,[1]; 0.1 μM,91.4 pg/mL
same,Conc. of IL-8,[1]; 1 μM,21.5 pg/mL
same,Conc. of IL-8,[1]; 10 μM,64.4 pg/mL
same,Conc. of IL-8,[1]; 20 μM,23.9 pg/mL
same,inhibition at 0.1 µM,"[1]; Homo sapiens, HepG2, 0.1 μM, read-out: % Inhibition (wrt Control ), IL-8",81.7%
same,inhibition at 1 µM,"[1]; Homo sapiens, HepG2, 1 μM, read-out: % Inhibition (wrt Control ), IL-8",95.7%
same,inhibition at 10 µM,"[1]; Homo sapiens, HepG2, 10 μM, read-out: % Inhibition (wrt Control ), IL-8",87.1%
same,inhibition at 20 µM,"[1]; Homo sapiens, HepG2, 20 μM, read-out: % Inhibition (wrt Control ), IL-8",95.2%
same,% Viability,[2]; 0.1 μM,122.7%
same,% Viability,[2]; 1 μM,76.3%
same,% Viability,[2]; 5 μM,90.0%
same,% Viability,[2]; 10 μM,82.6%
same,% Viability,[2]; 20 μM,69.5%
same,Conc. of IL-8,[3]; 0.1 μM,330.5 pg/mL
same,Conc. of IL-8,[3]; 1 μM,296.2 pg/mL
same,Conc. of IL-8,[3]; 10 μM,342.8 pg/mL
same,Conc. of IL-8,[3]; 20 μM,255.7 pg/mL
same,inhibition at 0.1 µM,"[3]; Homo sapiens, PANC-1, 0.1 μM, read-out: % Inhibition (wrt Control ), IL-8",55.7%
same,inhibition at 1 µM,"[3]; Homo sapiens, PANC-1, 1 μM, read-out: % Inhibition (wrt Control ), IL-8",60.3%
same,inhibition at 10 µM,"[3]; Homo sapiens, PANC-1, 10 μM, read-out: % Inhibition (wrt Control ), IL-8",54.1%
same,inhibition at 20 µM,"[3]; Homo sapiens, PANC-1, 20 μM, read-out: % Inhibition (wrt Control ), IL-8",65.7%
same,Con. of IL-8,[4]; 0.1 μM,2458.5
same,Conc. of IL-6,[4]; 0.1 μM,292.2
same,inhibition at 0.1 µM,[4]; [11],49.4%
same,inhibition at 0.1 µM,[4]; [12],42.5%
same,Con. of IL-8,[4]; 1 μM,2008.8
same,Conc. of IL-6,[4]; 1 μM,348.5
same,inhibition at 1 µM,[4]; [13],39.7%
same,inhibition at 1 µM,[4]; [14],53%
same,Con. of IL-8,[4]; 10 μM,2198.1
same,Conc. of IL-6,[4]; 10 μM,369.4
same,inhibition at 10 µM,[4]; [15],36%
same,inhibition at 10 µM,[4]; [16],48.6%
same,Con. of IL-8,[4]; 20 μM,2386.4
same,Conc. of IL-6,[4]; 20 μM,365.4
same,inhibition at 20 µM,[4]; [17],36.7%
same,inhibition at 20 µM,[4]; [18],44.2%
same,Con. of IL-8,[5]; 0.1 μM,31.2
same,Conc. of IL-6,[5]; 0.1 μM,50.8
same,Con. of IL-8,[5]; 1 μM,18.6
same,Conc. of IL-6,[5]; 1 μM,44.5
same,Con. of IL-8,[5]; 10 μM,29.1
same,Conc. of IL-6,[5]; 10 μM,53.3
same,Con. of IL-8,[5]; 20 μM,48.7
same,Conc. of IL-6,[5]; 20 μM,51.8
same,inhibition at 0.1 µM,[5]; [11],90%
same,inhibition at 0.1 µM,[5]; [12],97.8%
same,inhibition at 1 µM,[5]; [13],91.2%
same,inhibition at 1 µM,[5]; [14],98.7%
same,inhibition at 10 µM,[5]; [15],89.5%
same,inhibition at 10 µM,[5]; [16],98%
same,inhibition at 20 µM,[5]; [17],89.7%
same,inhibition at 20 µM,[5]; [18],96.6%
same,Con. of IL-8,[6]; 0.1 μM,44.1 pg/mL
same,Conc. of IL-6,[6]; 0.1 μM,106.0 pg/mL
same,Con. of IL-8,[6]; 1 μM,18.2 pg/mL
same,Conc. of IL-6,[6]; 1 μM,89.1 pg/mL
same,Con. of IL-8,[6]; 10 μM,53.5 pg/mL
same,Conc. of IL-6,[6]; 10 μM,73.6 pg/mL
same,Con. of IL-8,[6]; 20 μM,66.4 pg/mL
same,Conc. of IL-6,[6]; 20 μM,109.0 pg/mL
same,inhibition at 0.1 µM,[6]; [19],55%
same,inhibition at 0.1 µM,[6]; [20],93.4%
same,inhibition at 1 µM,[6]; [21],62.2%
same,inhibition at 1 µM,[6]; [22],97.3%
same,inhibition at 10 µM,[6]; [23],68.8%
same,inhibition at 10 µM,[6]; [24],92%
same,inhibition at 20 µM,[6]; [25],53.8%
same,inhibition at 20 µM,[6]; [26],90.1%
same,% Viability,[7]; 0.1 μM,110.0%
same,% Viability,[7]; 1 μM,98.2%
same,% Viability,[7]; 5 μM,83.1%
same,% Viability,[7]; 10 μM,95.6%
same,% Viability,[7]; 20 μM,104.3%
same,Con. of IL-8,[8]; 0.1 μM,447.3 pg/mL
same,Conc. of IL-6,[8]; 0.1 μM,64.5 pg/mL
same,Con. of IL-8,[8]; 1 μM,453.6 pg/mL
same,Conc. of IL-6,[8]; 1 μM,65.6 pg/mL
same,Con. of IL-8,[8]; 10 μM,551.8 pg/mL
same,Conc. of IL-6,[8]; 10 μM,79.6 pg/mL
same,Con. of IL-8,[8]; 20 μM,292.7 pg/mL
same,Conc. of IL-6,[8]; 20 μM,42.6 pg/mL
same,inhibition at 0.1 µM,[8]; [19],75.2%
same,inhibition at 0.1 µM,[8]; [20],76.6%
same,inhibition at 1 µM,[8]; [21],74.8%
same,inhibition at 1 µM,[8]; [22],76.3%
same,inhibition at 10 µM,[8]; [23],69.4%
same,inhibition at 10 µM,[8]; [24],71.2%
same,inhibition at 20 µM,[8]; [25],83.6%
same,inhibition at 20 µM,[8]; [26],84.7%
same,Con. of IL-8,[9]; 0.1 μM,407.8 pg/mL
same,Conc. of IL-6,[9]; 0.1 μM,49.3 pg/mL
same,Con. of IL-8,[9]; 1 μM,355.6 pg/mL
same,Conc. of IL-6,[9]; 1 μM,50.9 pg/mL
same,Con. of IL-8,[9]; 10 μM,400.6 pg/mL
same,Conc. of IL-6,[9]; 10 μM,46.2 pg/mL
same,Con. of IL-8,[9]; 20 μM,427.8 pg/mL
same,Conc. of IL-6,[9]; 20 μM,52.0 pg/mL
same,inhibition at 0.1 µM,[9]; [19],69.2%
same,inhibition at 0.1 µM,[9]; [20],42.4%
same,inhibition at 1 µM,[9]; [21],68.2%
same,inhibition at 1 µM,[9]; [22],49.8%
same,inhibition at 10 µM,[9]; [23],71.1%
same,inhibition at 10 µM,[9]; [24],43.4%
same,inhibition at 20 µM,[9]; [25],67.5%
same,inhibition at 20 µM,[9]; [26],39.6%
same,Con. of IL-8,[10]; 0.1 μM,1208.6 pg/mL
same,Con. of IL-8,[10]; 1 μM,1250.3 pg/mL
same,Conc. of IL-6,[10]; 1 μM,42.9 pg/mL
same,Con. of IL-8,[10]; 10 μM,1633.7 pg/mL
same,Conc. of IL-6,[10]; 10 μM,53.9 pg/mL
same,Con. of IL-8,[10]; 20 μM,1766.1 pg/mL
same,Conc. of IL-6,[10]; 20 μM,72.9 pg/mL
same,inhibition at 0.1 µM,"[10]; 0.1 μM, read-out: % Inhibition (wrt, IL-6)",85.7%
same,inhibition at 0.1 µM,"[10]; 0.1 μM, read-out: % Inhibition (wrt, IL-8)",25.2%
same,inhibition at 1 µM,"[10]; 1 μM, read-out: % Inhibition (wrt, IL-6)",87.3%
same,inhibition at 1 µM,"[10]; 1 μM, read-out: % Inhibition (wrt, IL-8)",22.6%
same,inhibition at 10 µM,"[10]; 10 μM, read-out: % Inhibition (wrt, IL-6)",84%
same,inhibition at 10 µM,"[10]; 10 μM, read-out: % Inhibition (wrt, IL-8)",0%
same,inhibition at 20 µM,"[10]; 20 μM, read-out: % Inhibition (wrt, IL-6)",78.4%
same,inhibition at 20 µM,"[10]; 20 μM, read-out: % Inhibition (wrt, IL-8)",0%
